According to PubChem BioAssay (NCI):
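Grown in 96-well plates, cells were treated for 48 hours with each compound at five concentrations. Insufficient inhibition: endpoint recorded as highest concentration tested. GI50 is the concentration that inhibits growth by half. At the TGI there is no net growth.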 Where a SMILES comes first, the peptide text is derived from it. The star is where a group is joined. Cbz = O=C(OCc1ccccc1)*; Bn = c1ccc(C*)cc1

Assays:
Experiment in all cases: inhibition of tumour cell growth, NCI panel, 48 h
KM12 colon = test system: KM12 colon
LOX IMVI melanoma = test system: LOX IMVI melanoma
SF-268 CNS = test system: SF-268 CNS
SK-MEL-5 melanoma = test system: SK-MEL-5 melanoma
NCI-H460 lung = test system: NCI-H460 lung
SF-295 CNS = test system: SF-295 CNS
A549 NSCLC = test system: A549 NSCLC
UACC-62 melanoma = test system: UACC-62 melanoma
NCI-H226 lung = test system: NCI-H226 lung
HCT-116 colon = test system: HCT-116 colon
IGROV1 ovarian = test system: IGROV1 ovarian
RXF 393 renal = test system: RXF 393 renal
MALME-3M melanoma = test system: MALME-3M melanoma
HCC-2998 colon = test system: HCC-2998 colon

For `CS(=O)(=O)c1ccc2nc(-c3ccc(O)cc3)sc2c1`, the TGI (KM12 colon) was 30.2 µM, the TGI (LOX IMVI melanoma) was 45.5 µM and the TGI (SF-268 CNS) was 32.3 µM. The TGI (SK-MEL-5 melanoma) was 31.8 µM, the TGI (NCI-H460 lung) was 35.3 µM and the TGI (SF-295 CNS) was 30.3 µM. It also gave a TGI (A549 NSCLC) of 34.3 µM, a TGI (UACC-62 melanoma) of 34.4 µM and a TGI (NCI-H226 lung) of 36.6 µM. It also gave a TGI (HCT-116 colon) of 30.5 µM, a TGI (IGROV1 ovarian) of 34.9 µM and a TGI (RXF 393 renal) of 32.9 µM. For the same compound, the TGI (MALME-3M melanoma) was 31 µM.
For `CCn1c(=O)c(C(=O)O)c(Cl)c2cc3c(cc21)OCO3`, the TGI (KM12 colon) was over 100 µM, the TGI (HCC-2998 colon) was over 100 µM and the TGI (LOX IMVI melanoma) was over 100 µM. It also gave a TGI (SF-268 CNS) of over 100 µM, a TGI (SK-MEL-5 melanoma) of over 100 µM and a TGI (NCI-H460 lung) of over 100 µM. It also gave a TGI (SF-295 CNS) of over 100 µM, a TGI (A549 NSCLC) of over 100 µM and a TGI (UACC-62 melanoma) of over 100 µM. For the same compound, the TGI (NCI-H226 lung) was over 100 µM, the TGI (HCT-116 colon) was over 100 µM and the TGI (IGROV1 ovarian) was over 100 µM. The TGI (RXF 393 renal) was over 100 µM and the TGI (MALME-3M melanoma) was over 100 µM.
Compound `CC(=O)OCC1OC(NC(=O)N(CCCl)N=O)C(OC(C)=O)C(OC(C)=O)C1OC(C)=O` (stereo not given) has a TGI (KM12 colon) of over 100 µM, a TGI (HCC-2998 colon) of over 100 µM and a TGI (LOX IMVI melanoma) of over 100 µM. For the same compound, the TGI (SF-268 CNS) was over 100 µM, the TGI (SK-MEL-5 melanoma) was over 31.6 µM and the TGI (NCI-H460 lung) was over 100 µM. The TGI (SF-295 CNS) was over 100 µM, the TGI (A549 NSCLC) was over 100 µM and the TGI (UACC-62 melanoma) was over 100 µM. It also gave a TGI (HCT-116 colon) of over 100 µM, a TGI (IGROV1 ovarian) of over 100 µM and a TGI (RXF 393 renal) of over 100 µM. For the same compound, the TGI (MALME-3M melanoma) was over 100 µM.
In the case of `CC1C[C@]2(C[C@@H](C)C(=O)O2)OC2CC3(C)C4CCC5C(C)(C)OC(=O)CC[C@@]56C[C@@]46CC[C@]3(C)C12` (stereo not given in full), the TGI (KM12 colon) is reported as over 100 µM, the TGI (HCC-2998 colon) is reported as over 100 µM and the TGI (LOX IMVI melanoma) is reported as over 100 µM. The TGI (SF-268 CNS) was over 100 µM, the TGI (SK-MEL-5 melanoma) was over 100 µM and the TGI (NCI-H460 lung) was over 100 µM. The TGI (SF-295 CNS) was over 100 µM, the TGI (A549 NSCLC) was over 100 µM and the TGI (NCI-H226 lung) was over 100 µM. For the same compound, the TGI (HCT-116 colon) was over 100 µM, the TGI (IGROV1 ovarian) was over 100 µM and the TGI (RXF 393 renal) was over 100 µM. It also gave a TGI (MALME-3M melanoma) of over 100 µM.
`c1ccc(-c2n(Cc3ccc4ccccc4c3)c3ccccc3[n+]2Cc2ccc3ccccc3c2)cc1` showed a GI50 (KM12 colon) of 0.321 µM, a TGI (KM12 colon) of 1.2 µM and a GI50 (SK-MEL-5 melanoma) of 0.175 µM. For the same compound, the TGI (SK-MEL-5 melanoma) was 0.326 µM, the GI50 (SF-295 CNS) was 0.306 µM and the TGI (SF-295 CNS) was 1.11 µM. The GI50 (UACC-62 melanoma) was 0.224 µM, the TGI (UACC-62 melanoma) was 0.76 µM and the GI50 (NCI-H226 lung) was 0.352 µM. It also gave a TGI (NCI-H226 lung) of 2.01 µM, a GI50 (MALME-3M melanoma) of 0.242 µM and a TGI (MALME-3M melanoma) of 0.768 µM.
`COc1ccc(N2C(=O)/C(=C\c3ccccc3)SC2c2cc(OC)c(OC)c(OC)c2)cc1` (stereo not given) gave a TGI (KM12 colon) of over 100 µM, a TGI (HCC-2998 colon) of over 100 µM and a TGI (LOX IMVI melanoma) of over 100 µM. For the same compound, the TGI (SF-268 CNS) was over 100 µM, the TGI (SK-MEL-5 melanoma) was over 100 µM and the TGI (SF-295 CNS) was over 100 µM. For the same compound, the TGI (A549 NSCLC) was over 100 µM, the TGI (UACC-62 melanoma) was over 100 µM and the TGI (NCI-H226 lung) was over 100 µM. The TGI (HCT-116 colon) was over 100 µM, the TGI (RXF 393 renal) was over 100 µM and the TGI (MALME-3M melanoma) was over 100 µM.
`CCCCSCC(NC(=O)/C=C/c1c(C)[nH]c(=O)[nH]c1=O)C(=O)OC` (stereo not given) gave a TGI (KM12 colon) of 157 µM, a TGI (HCC-2998 colon) of 132 µM and a TGI (LOX IMVI melanoma) of over 450 µM. For the same compound, the TGI (SF-268 CNS) was 341 µM, the TGI (SK-MEL-5 melanoma) was 176 µM and the TGI (NCI-H460 lung) was 177 µM. The TGI (SF-295 CNS) was 272 µM, the TGI (A549 NSCLC) was 401 µM and the TGI (UACC-62 melanoma) was 198 µM. The TGI (NCI-H226 lung) was 291 µM, the TGI (HCT-116 colon) was 246 µM and the TGI (IGROV1 ovarian) was 316 µM. The TGI (RXF 393 renal) was 267 µM and the TGI (MALME-3M melanoma) was 65.7 µM.
Compound `O=C1c2cccc(O)c2C(=O)c2c(O)cccc21` has a TGI (KM12 colon) of over 100 µM, a TGI (HCC-2998 colon) of over 100 µM and a TGI (LOX IMVI melanoma) of over 100 µM. For the same compound, the TGI (SF-268 CNS) was over 100 µM, the TGI (NCI-H460 lung) was over 100 µM and the TGI (SF-295 CNS) was over 100 µM. It also gave a TGI (A549 NSCLC) of over 100 µM, a TGI (UACC-62 melanoma) of 39.8 µM and a TGI (NCI-H226 lung) of over 100 µM. It also gave a TGI (HCT-116 colon) of over 100 µM, a TGI (IGROV1 ovarian) of over 100 µM and a TGI (RXF 393 renal) of over 100 µM.
`C1CSCCSCSCCS1` showed a TGI (KM12 colon) of over 100 µM, a TGI (HCC-2998 colon) of over 100 µM and a TGI (LOX IMVI melanoma) of over 100 µM. For the same compound, the TGI (SF-268 CNS) was over 100 µM, the TGI (SK-MEL-5 melanoma) was over 100 µM and the TGI (NCI-H460 lung) was over 100 µM. It also gave a TGI (SF-295 CNS) of over 100 µM, a TGI (A549 NSCLC) of over 100 µM and a TGI (UACC-62 melanoma) of over 100 µM. It also gave a TGI (NCI-H226 lung) of over 100 µM, a TGI (HCT-116 colon) of over 100 µM and a TGI (IGROV1 ovarian) of over 100 µM. It also gave a TGI (RXF 393 renal) of over 100 µM.
Compound `CN(C)CCOc1cc2c(c3ccccc13)-c1ccccc1C2O` (stereo not given) has a TGI (KM12 colon) of 29.5 µM, a TGI (HCC-2998 colon) of 28.2 µM and a TGI (LOX IMVI melanoma) of 23.9 µM. The TGI (SF-268 CNS) was 28.3 µM, the TGI (SK-MEL-5 melanoma) was 29.1 µM and the TGI (NCI-H460 lung) was 22 µM. It also gave a TGI (SF-295 CNS) of 48.7 µM, a TGI (A549 NSCLC) of 29.3 µM and a TGI (UACC-62 melanoma) of 31.5 µM. It also gave a TGI (NCI-H226 lung) of 29.1 µM, a TGI (HCT-116 colon) of 26.9 µM and a TGI (IGROV1 ovarian) of 32.4 µM. For the same compound, the TGI (RXF 393 renal) was 10.1 µM and the TGI (MALME-3M melanoma) was 34.8 µM.
Work on `C=CCOCCC(CC=C)C(=O)CC(=O)OC` (stereo not given) yielded a TGI (KM12 colon) of over 100 µM, a TGI (HCC-2998 colon) of over 100 µM and a TGI (LOX IMVI melanoma) of over 100 µM. It also gave a TGI (SF-268 CNS) of over 100 µM, a TGI (SK-MEL-5 melanoma) of over 100 µM and a TGI (NCI-H460 lung) of over 100 µM. It also gave a TGI (SF-295 CNS) of over 100 µM, a TGI (A549 NSCLC) of over 100 µM and a TGI (UACC-62 melanoma) of over 100 µM. For the same compound, the TGI (NCI-H226 lung) was over 100 µM, the TGI (HCT-116 colon) was over 100 µM and the TGI (IGROV1 ovarian) was over 100 µM. It also gave a TGI (RXF 393 renal) of over 100 µM and a TGI (MALME-3M melanoma) of over 100 µM.
With `COC(=O)C(Cc1ccc(O)cc1)NC(=O)C(COCc1ccccc1)NC(=O)OCc1ccccc1` (stereo not given) (Cbz-Ser(Bn)-Tyr-OMe; configuration not given here) the TGI (KM12 colon) was 35 µM, the TGI (HCC-2998 colon) was 17.3 µM and the TGI (LOX IMVI melanoma) was 41 µM. It also gave a TGI (SF-268 CNS) of 31.9 µM, a TGI (SK-MEL-5 melanoma) of 31.4 µM and a TGI (NCI-H460 lung) of 14.3 µM. The TGI (SF-295 CNS) was 35.3 µM, the TGI (A549 NSCLC) was 35.7 µM and the TGI (UACC-62 melanoma) was 31.1 µM. For the same compound, the TGI (NCI-H226 lung) was 36.9 µM, the TGI (HCT-116 colon) was 35.7 µM and the TGI (IGROV1 ovarian) was 32.3 µM. The TGI (RXF 393 renal) was 33.9 µM and the TGI (MALME-3M melanoma) was 39.6 µM.
Compound `NC(=O)c1ccc([N+](=O)[O-])cc1` has a TGI (KM12 colon) of over 100 µM, a TGI (HCC-2998 colon) of over 100 µM and a TGI (LOX IMVI melanoma) of over 100 µM. For the same compound, the TGI (SF-268 CNS) was over 100 µM, the TGI (SK-MEL-5 melanoma) was over 100 µM and the TGI (NCI-H460 lung) was over 100 µM. The TGI (SF-295 CNS) was over 100 µM, the TGI (A549 NSCLC) was over 100 µM and the TGI (UACC-62 melanoma) was over 100 µM. It also gave a TGI (NCI-H226 lung) of over 100 µM, a TGI (IGROV1 ovarian) of over 100 µM and a TGI (RXF 393 renal) of over 100 µM. For the same compound, the TGI (MALME-3M melanoma) was over 100 µM.
For `O=C(Nc1ccc(Cl)cc1)c1cc([N+](=O)[O-])ccc1O`, the TGI (KM12 colon) was 24.5 µM, the TGI (HCC-2998 colon) was 8.98 µM and the TGI (LOX IMVI melanoma) was 19.5 µM. The TGI (SF-268 CNS) was 47.7 µM, the TGI (SK-MEL-5 melanoma) was 8.25 µM and the TGI (NCI-H460 lung) was over 79.8 µM. It also gave a TGI (SF-295 CNS) of 30.4 µM, a TGI (A549 NSCLC) of over 96.2 µM and a TGI (UACC-62 melanoma) of 8.17 µM. The TGI (NCI-H226 lung) was 12.6 µM, the TGI (HCT-116 colon) was 20.8 µM and the TGI (IGROV1 ovarian) was 69.5 µM. The TGI (RXF 393 renal) was 6.64 µM and the TGI (MALME-3M melanoma) was 8.57 µM.
